# Source: US20190169181A1, “FUMAGILLOL COMPOUNDS AND METHODS OF MAKING AND USING SAME” (Zafgen, Inc., priority 2016, published 2019)
# Counter-ions that a name gives are not always drawn.
# Legend:
# [1] = system: Diet Induced Obese (DIO) C57BL/6 mice; experiment: 10 day DIO mouse model, weight loss vs. vehicle; assay type: in vivo; conditions: 240 h; for inhibition in vivo at 0.3 mg/kg: 0.3 mpk sc once a day for 10 days; for inhibition in vivo at 1 mg/kg: 1.0 mpk sc once a day for 10 days
# Summary of the method: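 Male DIO C57BL/6 mice on 60% fat diet, vehicle-acclimated 3 days, then given compound at 0.3 or 1.0 mg/kg SC (10% DMSO in water) once daily for 10 days. Body weight and food intake recorded daily; weight loss versus vehicle, with hematology and blood chemistry on Day 11.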
# [2] = target: T1, recombinant human MetAP2 (Homo sapiens, UniProt P50579); experiment: Recombinant human MetAP2 enzyme inhibition assay (MAS peptide / amino acid oxidase / Amplex Ultrared readout); assay type: biochemical; conditions: Flag tagged human recombinant MetAP2, 25 minutes at 25° C.
# T1 construct: Flag; made in house
# T1 sequence (P50579 whole entry): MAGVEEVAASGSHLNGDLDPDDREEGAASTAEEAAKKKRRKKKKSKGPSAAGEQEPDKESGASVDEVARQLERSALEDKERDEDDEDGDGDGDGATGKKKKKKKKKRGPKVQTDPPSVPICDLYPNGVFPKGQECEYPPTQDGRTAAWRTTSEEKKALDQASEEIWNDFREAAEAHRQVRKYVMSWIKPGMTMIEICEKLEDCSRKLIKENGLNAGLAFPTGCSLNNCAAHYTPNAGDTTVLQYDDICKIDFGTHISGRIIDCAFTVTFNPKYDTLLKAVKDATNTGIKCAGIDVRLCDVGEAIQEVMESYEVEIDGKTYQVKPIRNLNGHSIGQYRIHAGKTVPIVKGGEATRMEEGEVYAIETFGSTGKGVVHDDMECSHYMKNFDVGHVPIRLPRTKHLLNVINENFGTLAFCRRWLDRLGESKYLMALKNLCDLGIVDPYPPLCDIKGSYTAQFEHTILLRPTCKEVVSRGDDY
# [3] = system: rat DIO model (Sprague Dawley rats on 45% High Fat diet); experiment: 11 day rat DIO model, weight loss vs. vehicle; assay type: in vivo; conditions: for Rat @ 0.3 mpk sc (%) weight loss vs. vehicle: 0.3 mpk sc once a day for 11 days; for Rat @ 1.0 mpk sc (%) weight loss vs. vehicle: 1.0 mpk sc once a day for 11 days
# Description: The objective of this study design is to investigate the efficacy of disclosed compounds in an 11 day rat DIO model used to screen compounds for pharmacologic efficacy on endpoints related to obesity and metabolism. Effects on body weight, food intake, hematology and blood chemistries were the primary readouts of this study design. Male Sprague Dawley rats, approximately 8 weeks of age, were ordered from a certified vendor and housed on irradiated corncob bedding in micro-isolator cages, on a 12-hour light-dark cycle (0700-1900) at 68-74° F. and 30-70% humidity. Rats were fed Research Diets D12451 (45% High Fat) and provided water ad libitum. Rats were received and housed in the facility for at least two or three weeks prior to start of test article administration. On Day −4 or −3, rats were randomized into study groups based on body weight and body weights were continued to be recorded daily for the duration of the study. Daily food intake was assessed starting on Study Day −2 by weighing the hopper including the food to avoid loss of food in transfer.
# Compounds were formulated into a 100% DMSO stock (at 9 mg/mL) prior to the start, and further diluted into the target working concentration using the vehicle of 10% DMSO in water. Prior to test article administration, starting on Day −3 a dosing acclimation occurred with all animals receiving a subcutaneous injection of vehicle (10% DMSO) only for 3 days. Starting on Day 1, test compounds or vehicle were administered based on individual body weight, subcutaneously, once a day for 11 days. All animals were sacrificed on Day 11, approximately 2 hours following the final dosing on Day 11. After sacrifice, whole blood was collected and analyzed for hematology and blood chemistry parameters.
# Compounds were tested for weight loss vs. vehicle at 0.3 and 1.0 mpk sc (mg per kg animal weight delivered subcutaneously), and the results are shown in Table 2 below.
SMILES,IC50 [2] [nM],inhibition in vivo at 0.3 mg/kg [1] [%],Rat @ 0.3 mpk sc (%) weight loss vs. vehicle [3] [%],Rat @ 1.0 mpk sc (%) weight loss vs. vehicle [3] [%],inhibition in vivo at 1 mg/kg [1] [%]
"CO[C@@H]1[C@H](OC(=O)N[C@@H](c2cn(C[C@H]3CCN(C)C3)cn2)C(C)C)CC[C@]2(CO2)[C@H]1[C@@]1(C)O[C@@H]1CC=C(C)C [Example 12, (3R,4S,5S,6R)-5-methoxy-4-((2R,3R)-2-methyl-3-(3-methylbut-2-enyl)oxiran-2-yl)-1-oxaspiro[2.5]octan-6-yl (R)-2-methyl-1-(1-(((S)-1-methylpyrrolidin-3-yl)methyl)-1H-imidazol-4-yl)propylcarbamate formate]",50 to 500,9.5,12.9,18.8,–
"CNc1nnc([C@@H](NC(=O)O[C@@H]2CC[C@]3(CO3)[C@@H]([C@@]3(C)O[C@@H]3CC=C(C)C)[C@@H]2OC)C(C)C)o1 [Example 2, (3R,5S,6R)-5-methoxy-4-((2R,3R)-2-methyl-3-(3-methylbut-2-enyl)oxiran-2-yl)-1-oxaspiro[2.5]octan-6-yl (S)-2-methyl-1-(5-(methylamino)-1,3,4-oxadiazol-2-yl)propylcarbamate]",< 50,5.4,0.6,0.9,4.6
"CO[C@@H]1[C@H](OC(=O)N[C@H](c2cn(C[C@H]3CCCN3C)cn2)C(C)C)CC[C@]2(CO2)[C@H]1[C@@]1(C)O[C@@H]1CC=C(C)C [Example 16, (3R,4S,5S,6R)-5-methoxy-4-((2R,3R)-2-methyl-3-(3-methylbut-2-enyl)oxiran-2-yl)-1-oxaspiro[2.5]octan-6-yl (S)-2-methyl-1-(1-(((R)-1-methylpyrrolidin-2-yl)methyl)-1H-imidazol-4-yl)propylcarbamate]",50 to 500,6.6,2.8,–,–
"CO[C@@H]1[C@H](OC(=O)N[C@H](c2cn(C[C@H]3CCN(C)C3)cn2)C(C)C)CC[C@]2(CO2)[C@H]1[C@@]1(C)O[C@@H]1CC=C(C)C [Example 15, (3R,4S,5S,6R)-5-methoxy-4-((2R,3R)-2-methyl-3-(3-methylbut-2-en-1-yl)oxiran-2-yl)-1-oxaspiro[2.5]octan-6-yl ((S)-2-methyl-1-(1-(((S)-1-methylpyrrolidin-3-yl)methyl)-1H-imidazol-4-yl)propyl)carbamate]",< 50,10.8,10.6,16.4,8.4

# More lines, main results first:
IC50 [2] [nM],SMILES,inhibition in vivo at 0.3 mg/kg [1] [%],Rat @ 0.3 mpk sc (%) weight loss vs. vehicle [3] [%],Rat @ 1.0 mpk sc (%) weight loss vs. vehicle [3] [%],inhibition in vivo at 1 mg/kg [1] [%]
< 50,"CO[C@@H]1[C@H](OC(=O)N[C@@H](C)Cc2noc(=O)[nH]2)CC[C@]2(CO2)[C@H]1[C@@]1(C)O[C@@H]1CC=C(C)C [Example 28, (3R,4S,5S,6R)-5-methoxy-4-((2R,3R)-2-methyl-3-(3-methylbut-2-en-1-yl)oxiran-2-yl)-1-oxaspiro[2.5]octan-6-yl ((S)-1-(5-oxo-4,5-dihydro-1,2,4-oxadiazol-3-yl)propan-2-yl)carbamate]",-2.3,−1.4,–,4.2
50 to 500,"CO[C@@H]1[C@H](OC(=O)N[C@H](c2nccn2C[C@@H]2CCCN2C)C(C)C)CC[C@]2(CO2)[C@H]1[C@@]1(C)O[C@@H]1CC=C(C)C [Example 6, (3R,4S,5S,6R)-5-methoxy-4-((2R,3R)-2-methyl-3-(3-methylbut-2-enyl)oxiran-2-yl)-1-oxaspiro[2.5]octan-6-yl (S)-2-methyl-1-(1-(((S)-1-methylpyrrolidin-2-yl)methyl)-1H-imidazol-2-yl)propylcarbamate formate]",6.5,0.1,2.1,–
50 to 500,"CO[C@@H]1[C@H](OC(=O)N[C@@H](Cc2noc(=O)[nH]2)C(C)C)CC[C@]2(CO2)[C@H]1[C@@]1(C)O[C@@H]1CC=C(C)C [Example 27, (3R,4S,5S,6R)-5-methoxy-4-((2R,3R)-2-methyl-3-(3-methylbut-2-enyl)oxiran-2-yl)-1-oxaspiro[2.5]octan-6-yl (S)-3-methyl-1-(5-oxo-4,5-dihydro-1,2,4-oxadiazol-3-yl)butan-2-ylcarbamate]",–,−0.8,1.9,5.4
